Where a name gives a salt, the structure may show the parent alone.

This assay concerns recombinant guanylate cyclase reporter cell line. Nature of the assay: Action on recombinant guanylate cyclase reporter cell line (MEC). The format is cell-based. The note with it: in some cases mean values obtained from individual determinations. The essentials:
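Cell-based reporter assay with recombinant guanylate cyclase expressed in a reporter cell line, per a published method. Activity reported as minimal effective concentration (MEC), in some cases as the mean of individual determinations.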
With `Cc1nc2c(OCc3c(F)cccc3F)cccn2c1C(=O)N[C@@H](CO)CCO` [Example 129, 8-[(2,6-difluorobenzyl)oxy]-N-[(2R)-1,4-dihydroxybutan-2-yl)-2-methylimidazo[1,2-a]pyridine-3-carboxamide], the minimal effective concentration (as a rule, the smallest amount tested that counted as effective) stood at 3 µM. The value for `Cc1nc2c(OCc3c(F)cccc3F)cccn2c1C(=O)N[C@@H](CO)CCCO` [Example 130, 8-[(2,6-difluorobenzyl)oxy]-N-[(2R)-1,5-dihydroxypentan-2-yl]-2-methylimidazo[1,2-a]pyridine-3-carboxamide] was 1 µM; that for `CCCC[C@H](CO)NC(=O)c1c(C)nc2c(OCc3c(F)cccc3F)cc(Cl)cn12` [Example 131, 6-chloro-8-[(2,6-difluorobenzyl)oxy]-N-[(2R)-1-hydroxyhexan-2-yl]-2-methylimidazo[1,2-a]pyridine-3-carboxamide] was 0.01 µM. Then `CCCC[C@H](CO)NC(=O)c1c(C)nc2c(OCc3c(F)cccc3F)cc(F)cn12` [Example 132, 8-[(2,6-difluorobenzyl)oxy]-6-fluoro-N-[(2R)-1-hydroxyhexan-2-yl]-2-methylimidazo[1,2-a]pyridine-3-carboxamide], with 0.03 µM; and `CCCC[C@H](CO)NC(=O)c1c(C)nc2c(OCc3c(F)cccc3F)cc(C)cn12` [Example 133, 8-[(2,6-difluorobenzyl)oxy]-N-[(2R)-1-hydroxyhexan-2-yl]-2,6-dimethylimidazo[1,2-a]pyridine-3-carboxamide], with 0.01 µM; and `CCCC[C@H](CO)NC(=O)c1c(C2CC2)nc2c(OCc3c(F)cccc3F)cccn12` [Example 134, 2-cyclopropyl-8-[(2,6-difluorobenzyl)oxy]-N-[(2R)-1-hydroxyhexan-2-yl]imidazo[1,2-a]-pyridine-3-carboxamide], with 0.3 µM. Turning to `Cc1nc2c(OCc3c(F)cccc3F)cccn2c1C(=O)N[C@@H](CO)CC[C@@H](O)C(F)(F)F` [Example 135, 8-[(2,6-difluorobenzyl)oxy]-2-methyl-N-[(2R, 5R)-6,6,6-trifluoro-1,5-dihydroxyhexan-2-yl]imidazo[1,2-a]pyridine-3-carboxamide trifluoroacetate (1:1)], the minimal effective concentration was 0.1 µM. Then `Cc1nc2c(OCc3c(F)cccc3F)cccn2c1C(=O)NCC(O)COc1ccc(F)cc1` (stereo not shown) [Example 136, 8-[(2,6-difluorobenzyl)oxy]-N-[3-(4-fluorophenoxy)-2-hydroxypropyl]-2-methylimidzao[1,2-a]pyridine-3-carboxamide], with 3 µM; and `Cc1nc2c(OCc3c(F)cccc3F)cccn2c1C(=O)NCC(O)COc1ccccc1` (stereo not shown) [Example 137, 8-[(2,6-difluorobenzyl)oxy]-N-(2-hydroxy-3-phenoxypropyl)-2-methylimidazo[1,2-a]-pyridine-3-carboxamide], with 3 µM; and `CCCC[C@@H](NC(=O)c1c(C)nc2c(OCc3c(F)cccc3F)cccn12)C(C)O` (stereo partly drawn) [Example 139, 8-[(2,6-Difluorobenzyl)oxy]-N-[(3R)-2-hydroxyheptan-3-yl]-2-methylimidazo[1,2-a]pyridine-3-carboxamide], with 0.03 µM. As for `CCCC[C@@H](NC(=O)c1c(C)nc2c(OCc3c(F)cccc3F)cccn12)C(C)O` (stereo partly drawn) [Example 140, 8-[(2,6-Difluorobenzyl)oxy]-N-[(3R)-2-hydroxyheptan-3-yl]-2-methylimidazo[1,2-a]pyridine-3-carboxamide], the minimal effective concentration came to 0.03 µM. The value for `CCCC[C@@H](NC(=O)c1c(C)nc2c(OCc3c(F)cccc3F)cccn12)C(O)C(F)(F)F` (stereo partly drawn) [Example 141, 8-[(2,6-Difluorobenzyl)oxy]-2-methyl-N-[(3R)-1,1,1-trifluoro-2-hydroxyheptan-3-yl]imidazo[1,2-a]pyridine-3-carboxamide] was 0.1 µM. The value for `CCCC[C@@H](NC(=O)c1c(C)nc2c(OCc3c(F)cccc3F)cccn12)C(O)C(F)(F)F` (stereo partly drawn) [Example 142, 8-[(2,6-Difluorobenzyl)oxy]-2-methyl-N-[(3R)-1,1,1-trifluoro-2-hydroxyheptan-3-yl]imidazo[1,2-a]pyridine-3-carboxamide] was 0.1 µM; that for `CCCC[C@@H](NC(=O)c1c(C)nc2c(OCc3c(F)cccc3F)cccn12)C(C)(C)O` [Example 147, 8-[(2,6-Difluorobenzyl)oxy]-N-[(3R)-2-hydroxy-2-methylheptan-3-yl]-2-methylimidazo[1,2-a]-pyridine-3-carboxamide] was 0.1 µM. Then `Cc1nc2c(OCc3c(F)cccc3F)cccn2c1C(=O)NCCC(C)(C)O` [Example 153, 8-[(2,6-difluorobenzyl)oxy]-N-(3-hydroxy-3-methylbutyl)-2-methylimidazo[1,2-a]pyridine-3-carboxamide], with 0.3 µM; and `CCCC[C@H](CO)NC(=O)c1c(C)nc2c(OCc3c(F)cccc3F)cc(C#N)cn12` [Example 157, 6-Cyano-8-[(2,6-difluorobenzyl)oxy]-N-[(2R)-1-hydroxyhexan-2-yl]-2-methylimidazo[1,2-a]-pyridine-3-carboxamide], with 0.065 µM. Take `CCCC[C@H](CO)NC(=O)c1c(C)nc2c(OCCC(C)C)cccn12` [Example 159, N-[(2R)-1-Hydroxyhexan-2-yl]-2-methyl-8-(3-methylbutoxy)imidazo[1,2-a]pyridine-3-carboxamide]: the minimal effective concentration amounted to 1 µM.

Turning to `COC(=O)[C@H](CO)NC(=O)c1c(C)nc2c(OCc3c(F)cccc3F)cccn12` [Example 164, Methyl N-({8-[(2,6-difluorobenzyl)oxy]-2-methylimidazo[1,2-a]pyridin-3-yl}carbonyl)-L-serinate], the minimal effective concentration stood at 0.2 µM. In the case of `Cc1nc2c(OCc3c(F)cccc3F)cccn2c1C(=O)N[C@@H](CO)C(C)(C)O` [Example 165, 8-[(2,6-Difluorobenzyl)oxy]-N-[(2S)-1,3-dihydroxy-3-methylbutan-2-yl]-2-methylimidazo[1,2-a]-pyridine-3-carboxamide], the minimal effective concentration is 1 µM. Then `CCCC[C@H](CO)NC(=O)c1c(C)nc2c(OCCC(C)C)cc(C)cn12` [Example 166, N-[(2R)-1-Hydroxyhexan-2-yl]-2,6-dimethyl-8-(3-methylbutoxy)imidazo[1,2-a]pyridine-3-carboxamide], with 1 µM. Then `CCCCC(NC(=O)c1c(C)nc2c(OCCC(C)C)cc(C)cn12)C(C)(C)O` (stereo not drawn) [Example 167, ent-N-(2-Hydroxy-2-methylheptan-3-yl)-2,6-dimethyl-8-(3-methylbutoxy)imidazo[1,2-a]pyridine-3-carboxamide], with 2 µM. Then `CCCC[C@H](CO)NC(=O)c1c(C)nc2c(OCCC(C(F)(F)F)C(F)(F)F)cc(C)cn12` [Example 169, N-[(2R)-1-Hydroxyhexan-2-yl]-2,6-dimethyl-8-[4,4,4-trifluoro-3-(trifluoromethyl)butoxy]imidazo-[1,2-a]pyridine-3-carboxamide], with 0.3 µM; and `Cc1cc(OCCC(C(F)(F)F)C(F)(F)F)c2nc(C)c(C(=O)NC3c4ccccc4CC3O)n2c1` (stereo not shown) [Example 172, N-(2-Hydroxy-2,3-dihydro-1H-inden-1-yl)-2,6-dimethyl-8-[4,4,4-trifluoro-3-(trifluoromethyl)-butoxy]imidazo[1,2-a]pyridine-3-carboxamide], with 1 µM; and `Cc1cc(OCCC(C(F)(F)F)C(F)(F)F)c2nc(C)c(C(=O)NC3CCCC3O)n2c1` (stereo not shown) [Example 173, N-(2-hydroxycyclopentyl)-2,6-dimethyl-8-[4,4,4-trifluoro-3-(trifluoromethyl)butoxy]imidazo[1,2-a]pyridine-3-carboxamide], with 3 µM.

Take `CCCC[C@H](CO)NC(=O)c1c(C)nc2c(OCc3c(F)cccc3F)c(F)ccn12` [Example 177, 8-[(2,6-Difluorobenzyl)oxy]-7-fluoro-N-[(2R)-1-hydroxyhexan-2-yl]-2-methylimidazo[1,2-a]-pyridine-3-carboxamide]: the minimal effective concentration turned out to be 1 µM.

These data come from patent publication US8778964B2, “Hydroxy-substituted imidazo[1,2-a]-pyridinecarboxamides and their use” (Bayer Pharma Aktiengesellschaft, priority 2012, dated 2014).
